Laboratory results published in patent US20070254899A1, “Soluble salts of thieno[2,3-d]pyrimidine derivatives” (Dynogen Pharmaceuticals, Inc., priority 2006, published 2007).
Where “and” joins values, the source holds several entries; their conditions need not be identical. Identical values can stand only once. Counter-ions that a name gives are not always drawn.

How the values were obtained:
[1] = system: rats; experiment: Visceromotor response to colorectal distension, acetic acid-induced colonic hypersensitivity; format: in vivo, rat; settings: for Visceromotor response (number of abdominal contractions) to colorectal distension vs vehicle: all doses tested i.p. (ondansetron 1, 5, 10; nisoxetine 3, 10, 30 mg/kg)
Protocol: A 10 min recovery was allowed between distensions.
Adult male rats were used in the study.
Ten minute recovery periods were allowed following each distension.
Statistical significance of the treatment groups was assessed using one-way ANOVA followed by Tukey post-test. […] (*) p<0.05, (**) p<0.01, (***) p<0.001

[2] = system: rats; experiment: Water avoidance stress (WAS) model of increased colonic transit, fecal pellet output; format: in vivo, rat; settings: for WAS-induced fecal pellet output in 1 hour: all doses tested i.p. (MCI-225, nisoxetine 3, 10, 30; ondansetron 1, 5, 10 mg/kg)
Protocol: Ondansetron (5-HT3 receptor antagonist), nisoxetine (NARI) and a combination of ondansetron and nisoxetine were used as comparison compounds. The model provides a method of evaluating the effectiveness of a compound in a specific patient group of IBS sufferers where stress induced colonic motility is considered a significant contributing factor.
Fecal pellet output was measured by counting the total number of fecal pellets produced during 1 hour of WAS.
All rats underwent sham stress (I-hour in stress chamber without water) for 2-4 consecutive days before undergoing WAS (sham was performed until rats produced 0-1 pellet per hour for 2 consecutive days). At the end of the 1-hour stress period, the fecal pellets were counted and recorded.
WAS causes an acceleration of colonic transit, which can be quantified by counting the number of fecal pellets, produced during the stress procedure. Rats were placed for 1-hour into a stress chamber onto a raised platform 7.5 cm×7.5 cm×9 cm (L×W×H) in the center of a stress chamber filled with room temperature water 8 cm in depth.
Control drugs for this study were ondansetron and nisoxetine. Ondansetron was supplied from APIN Chemicals LTD. Nisoxetine was supplied by Tocris. […] All drugs and the vehicle were administered as an i.p. injection in a volume of 0.2 mL.
Statistical significance was assessed using one-way ANOVA followed by Tukey post-test. Statistical differences were compared between the WAS groups and the sham stress group and was considered significant if p<0.05. (*) p<0.05, (**) p<0.01, (***) p<0.001

[3] = system: rats; experiment: Small Intestinal Transit Rodent Model (charcoal meal); format: in vivo, rat; settings: for Small intestinal transit, Mean (% of total small intestinal length): 15-min test period
Protocol: Following an overnight fast, rats were brought to the laboratory in their home cages and received an i.p. injection of one of the following: […] Control rats received no treatment. The treated rats were placed back in the home cages and after 30 min, were fed a 2 mL charcoal meal via an oral gavage. Small intestinal transit was measured following 15 min test-period. Each rat was placed briefly in a glass chamber with IsoFlo for anesthesia and sacrificed. The stomach and the small intestine were removed and the total length of the small intestine was measured. Transit was then measured as the distance that the charcoal meal had traveled along the small intestine and expressed as % of the total length. Animals were randomly assigned to experimental groups and experiments were performed as illustrated in Table 3. Ondansetron was supplied from APIN Chemicals LTD. […] MCI-225 was provided by Mitsubishi Pharma Corp. All drugs were dissolved in a vehicle of 100% propylene glycol (1,2-Propanediol) by sonicating for 10 min. Propylene glycol was obtained from Sigma Chemical Co. Ondansetron, a 5-HT3-receptor antagonist was dosed i.p. at 1, 5, and 10 mg/kg. […] All doses were delivered in a final volume of 200 μL. Animals in the vehicle control group received 200 μL of 100% Propylene glycol and animals in the normal control group were untreated. Small intestinal transit in rats was investigated by the passage of a charcoal meal along the small intestine during a defined time period (15-min). The animals were deprived of food for 12-16 hrs prior to the experiments. Rats were given a charcoal meal (a mixture of charcoal, gum arabic, and distilled water) as a 2 mL oral gavage and were sacrificed after a 15-min test period. The distance traveled by the charcoal meal was quantified as a percent of the small intestinal length, using the following equation: Transit (%)=cm traveled by meal/cm total small intestinal length×100 […] Statistical analysis was performed to determine mean, standard error to the mean and standard deviation for each group (See Table 3). Differences between individual dose groups within treatments and comparisons between drug-treated and vehicle-treated groups were determined using an unpaired t test considering that when % is used as a relative unit, t-statistic is relevant. In all cases p<0.05 was considered statistically significant.

[4] = system: ferrets; experiment: Cisplatin-induced emesis in the ferret; format: in vivo, Mustela putario furo
Protocol: The ability of MCI-225 to reduce retching and vomiting in an accepted model of cytotoxin-induced emesis in the ferret was assessed. Specifically, the experiments described herein investigated the effect of MCI-225 on retching and vomiting induced by cisplatin. Ondansetron was used as a positive control in the model, in view of its known antiemetic activity. Adult male ferrets (Mustela putario furo) weighing 1200-1880 g were purchased from Triple F Farms (Sayre, Pa.) and housed in individual cages at standardized conditions (12:12 h light/dark cycle and 21-23° C.). Prior to the experiments, the ferrets were allowed a 7-10 day acclimatization period to the animal facility. The ferrets were fed a carnivore diet with free access to food and water throughout the course of the study. The use of the ferret model of emesis and the drug treatment were preapproved in accordance with facility standards. A cisplatin solution was prepared by adding preheated (70° C.) saline to cisplatin powder (Sigma-Aldrich Co.) and stirring or sonicating at 40° C. until dissolved. Following administration of the cisplatin and either MCI-225, ondansetron or vehicle alone, the occurrence of retching and vomiting was monitored for a period of 6 hours. Retching was defined as the number of forceful rhythmic contractions of the abdomen occurring with the animal in characteristic posture, but not resulting in the expulsion of upper gastrointestinal tract contents (Watson et al., British Journal of Pharmacology, 115(1): 84-94 (1994)). Vomiting was defined as the forceful oral expulsion of upper gastrointestinal contents. The latency of the retching or vomiting response and the number of episodes were recorded for each animal and summarized for each experimental group (Wright et al., Infect. Immun., 68(4): 2386-9 (2000)). Following one hour of acclimation to the observation cage, ferrets received an intraperitoneal (i.p.) injection of cisplatin (5 mg/kg in 5 mL) followed in about 2 minutes by i.p. injection of a single dose of MCI-225 or ondansetron (Rudd and Naylor, Eur. J. Pharmacol., 322: 79-82 (1997)). Dose-response effects of MCI-225 dosed at 1, 10 and 30 mg/kg i.p. in a 0.5 mL/kg solution or ondansetron dosed at 5 and 10 mg/kg i.p. in a 0.5 mL/kg solution were studied. Each animal received a single-dose drug treatment. In addition, three animals received an initial dose (30 mg/kg i.p.) and a second MCI-225 injection (30 mg/kg i.p.) 180 minutes following the initial dose. […] All groups were randomized.

[5] = format: physicochemical
Protocol: (§1) Form I was characterized by pKa, LogP, LogPion and LogD determination and prediction, XRPD before and after storage at 40° C./75% RH for 4 weeks, PLM, DSC and TGA, ^1HNMR, solubility in water with pH measurement, HPLC purity before and after storage at 40° C./75% RH for 4 weeks, water content, GVS with XRPD and purity analysis after measurement, and VT-XRPD.
As expected from the predicted values, the compound is suitable for a mono salt screen and should form strong stable salts.

[6] = format: physicochemical; remark: listed apart in the source
Protocol: as §1
LogP, LogPion and LogD values were measured by using different ratios of 0.1 5M KCl(Aq) to 1-octanol, with refinement of a multiset of the data. The measured LogP, 3.96, is in good agreement with the predicted values.

[7] = Storage at 40° C./75% RH (XRPD, HPLC purity, colour); format: physicochemical
[8] = GVS (gravimetric vapour sorption), single cycle; format: physicochemical
Protocol: as §1
This weight increase was not associated with any significant hysteresis between the adsorption and desorption cycles.

[9] = Protocol: The suspension was then equilibrated at 25° C. for 24 hours followed by a pH check and filtration through a glass fibre C 96 well plate. […] HPLC using a generic 5 minute method was used to quantify the amount of sample in solution with reference to a standard dissolved in DMSO at 0.1 mg/ml. Various volumes of the standard, diluted and undiluted tests were injected. […] If sufficient solid remained in the filter plate the XRPD was normally checked for phase changes, hydrate formation, amorphization, crystallization and other changes.
[10] = 30 mg/kg b.i.d, i.p., 180-min interval

## Cc1nccn1CC1CCc2c(c3ccccc3n2C)C1=O (centres unmarked) [Ondansetron]
[1]; 10 mg/kg i.p., 30 and 60 mmHg
  Visceromotor responses at moderate and high intraluminal pressure: did not abolish the responses
[1]; 1, 5 or 10 mg/kg i.p.
  Behavioral activity of the rats: No significant changes in the behavioral activity
[1]
  Visceromotor response (number of abdominal contractions) to colorectal distension vs vehicle: dose-dependent decrease in the number of abdominal contractions
[2]
  WAS-induced fecal pellet output in 1 hour: dose-dependent inhibition
[3]; all doses tested i.p. (MCI-225 3, 10, 30; ondansetron 1, 5, 10 mg/kg)
  Small intestinal transit vs vehicle: significant reduction in small intestinal transit
[4]; all doses tested i.p.
  Latency of the emetic response following cisplatin: increase in the latency
[4]; all doses tested i.p. (ondansetron 5, 10; MCI-225 1, 10, 30 mg/kg)
  Emetic events (retches and vomits) induced by cisplatin: dose-dependently reduced the number of emetic events

## 4-(2-fluorophenyl)-6-methyl-2-(piperazin-1-yl)thieno[2,3-d] pyrimidine hydrochloride [MCI-225]
[5]
  pKa (basic): 8.64
  pKa of second basic centre: 0.81
[6]
  LogP: 3.96
  LogPion: 1.41
[6]; pH 7.4
  LogD: 2.72
[7]; 4 weeks at 40° C./75% RH, ambient light
  Appearance of material surface after storage: gone yellow
[7]; 4 weeks at 40° C./75% RH, ambient light, initial purity 100%
  HPLC purity after storage: 99.0%
[7]; 40° C./75% RH, four weeks
  XRPD pattern after storage: unchanged
[8]; between 0 and 90% RH
  GVS total weight increase: 5.0%
[8]; between 20% and 30% RH, equivalent to 1.0 moles of water
  GVS weight increase: about 4.8%
[9]
  Aqueous solubility: 2100 µg/mL
  Aqueous solubility, equivalent as the free base: 1700 µg/mL
  pH after solubility equilibration: 6.33

## Cc1cc2c(-c3ccccc3F)nc(N3CCNCC3)nc2s1 [MCI-225, 4-(2-fluorophenyl)-6-methyl-2-(piperazin-1-yl)thieno[2,3-d] pyrimidine hydrochloride]
[1]; 30 mg/kg i.p., acetic acid sensitized rats
  Animals in which the visceromotor response to CRD was eliminated: 50 % of the animals
[3]; 3 mg/kg i.p.
  Small intestinal transit, Mean (% of total small intestinal length): 30.1%
[3]; 10 mg/kg i.p., hydrochloride
  Small intestinal transit, Mean (% of total small intestinal length): 4.2±2.6% and 4.2%
[3]; 30 mg/kg i.p.
  Small intestinal transit, Mean (% of total small intestinal length): 8.8%
[4]; 1 mg/kg i.p.
  Latency: 186 ± 35 min
  Retches (360 min): 30.4 ± 9.1
  Total Events: 32.9 ± 9.8
  Vomits (360 min): 2.5 ± 0.7
[4]; 10 mg/kg i.p.
  Latency: 192 ± 57 min
  Retches (360 min): 22.9 ± 10.3
  Total Events: 25.5 ± 11.1
  Vomits (360 min): 2.6 ± 1.0
[4]; [10]
  Latency: 360 ± 0 min
  Retches (360 min): 0.0 ± 0.0
  Total Events: 0.0 ± 0.0
  Vomits (360 min): 0.0 ± 0.0
[4]; 30 mg/kg i.p.
  Latency: 287 ± 38 min
  Retches (360 min): 3.3 ± 2.2
  Total Events: 4.0 ± 2.6
  Vomits (360 min): 0.7 ± 0.5

## CNCCC(Oc1ccccc1OC)c1ccccc1 (centres unmarked) [Nisoxetine]
[1]; 30 mg/kg i.p.
  Behavior in the home cage during the experiments: increased exploratory behavior
[1]
  Visceromotor response (number of abdominal contractions) to colorectal distension vs vehicle: no significant effect
[2]; 10 and 30 mg/kg i.p.
  Fecal pellets produced during WAS vs vehicle treated group: significantly fewer fecal pellet produced
[2]
  WAS-induced fecal pellet output in 1 hour: reduced by all doses
[3]; 30 mg/kg i.p.
  Animals with charcoal meal completely retained in the stomach: 4 out of 5
  Small intestinal transit: almost completely inhibited the transit
[3]; 3 or 10 mg/kg i.p.
  Small intestinal transit: tendency to decrease small intestinal transit
